Tests used:
[1] = molecular target: Diacylglycerol kinase alpha (Homo sapiens, UniProt P23743); assay: DGK ADP-Glo Kinase Assay
Protocol: (§1) Luminescence was recorded using an Tecan SPARK microplate reader.

[2] = molecular target: Diacylglycerol kinase zeta (Homo sapiens, UniProt Q13574); assay: DGK ADP-Glo Kinase Assay
Protocol: as §1

Diacylglycerol kinase alpha, sequence (P23743 whole entry): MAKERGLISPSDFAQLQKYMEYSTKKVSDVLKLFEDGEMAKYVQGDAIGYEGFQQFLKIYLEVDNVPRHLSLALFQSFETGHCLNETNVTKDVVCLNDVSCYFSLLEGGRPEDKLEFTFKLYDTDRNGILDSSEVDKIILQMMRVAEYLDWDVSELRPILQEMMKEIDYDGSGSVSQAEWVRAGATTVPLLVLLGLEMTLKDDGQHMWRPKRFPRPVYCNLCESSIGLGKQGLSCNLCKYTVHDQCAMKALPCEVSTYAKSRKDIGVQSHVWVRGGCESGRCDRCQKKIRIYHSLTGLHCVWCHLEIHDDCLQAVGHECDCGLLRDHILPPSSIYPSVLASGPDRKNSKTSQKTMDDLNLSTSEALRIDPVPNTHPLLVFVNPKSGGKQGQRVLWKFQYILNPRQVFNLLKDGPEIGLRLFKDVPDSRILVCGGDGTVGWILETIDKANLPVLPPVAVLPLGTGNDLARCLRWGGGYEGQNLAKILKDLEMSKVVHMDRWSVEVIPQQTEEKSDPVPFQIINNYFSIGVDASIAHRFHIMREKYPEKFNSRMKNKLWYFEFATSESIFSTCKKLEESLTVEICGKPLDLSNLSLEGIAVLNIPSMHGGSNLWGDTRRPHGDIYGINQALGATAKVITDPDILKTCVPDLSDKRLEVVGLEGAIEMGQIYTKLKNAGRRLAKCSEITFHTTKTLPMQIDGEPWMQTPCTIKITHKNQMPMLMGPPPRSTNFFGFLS
Diacylglycerol kinase zeta, sequence (Q13574 as listed by the source): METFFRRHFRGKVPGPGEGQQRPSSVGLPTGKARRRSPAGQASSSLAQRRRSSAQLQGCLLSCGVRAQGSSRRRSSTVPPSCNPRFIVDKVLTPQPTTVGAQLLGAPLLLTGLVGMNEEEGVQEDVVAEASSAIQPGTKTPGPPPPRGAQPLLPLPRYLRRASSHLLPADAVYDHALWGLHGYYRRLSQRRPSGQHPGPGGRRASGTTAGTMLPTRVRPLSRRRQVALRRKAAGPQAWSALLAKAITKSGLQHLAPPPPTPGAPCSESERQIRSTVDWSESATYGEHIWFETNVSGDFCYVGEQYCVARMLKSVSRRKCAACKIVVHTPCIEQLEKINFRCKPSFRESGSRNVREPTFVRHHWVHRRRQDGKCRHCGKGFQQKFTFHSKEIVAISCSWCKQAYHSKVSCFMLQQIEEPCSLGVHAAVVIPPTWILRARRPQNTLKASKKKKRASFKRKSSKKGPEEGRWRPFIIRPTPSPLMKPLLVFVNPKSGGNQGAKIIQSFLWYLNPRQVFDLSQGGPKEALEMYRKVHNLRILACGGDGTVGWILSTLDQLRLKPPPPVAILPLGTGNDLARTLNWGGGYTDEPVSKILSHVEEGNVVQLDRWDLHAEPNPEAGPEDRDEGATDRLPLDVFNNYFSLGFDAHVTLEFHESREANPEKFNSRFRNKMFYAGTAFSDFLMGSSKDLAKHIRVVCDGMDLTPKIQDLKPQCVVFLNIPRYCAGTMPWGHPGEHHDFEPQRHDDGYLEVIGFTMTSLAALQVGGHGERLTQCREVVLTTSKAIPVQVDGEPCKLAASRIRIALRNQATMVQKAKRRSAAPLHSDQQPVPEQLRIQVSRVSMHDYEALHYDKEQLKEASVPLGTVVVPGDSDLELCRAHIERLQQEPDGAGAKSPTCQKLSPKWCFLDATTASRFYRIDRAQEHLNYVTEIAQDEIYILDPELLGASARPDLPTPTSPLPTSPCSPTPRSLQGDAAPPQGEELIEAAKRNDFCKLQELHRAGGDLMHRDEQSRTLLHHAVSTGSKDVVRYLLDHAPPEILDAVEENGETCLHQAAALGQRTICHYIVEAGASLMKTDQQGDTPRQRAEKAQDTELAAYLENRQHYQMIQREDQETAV

CCC(c1cccc(S(F)(F)(F)(F)F)c1)N1C[C@H](CC)N(c2nc(=O)n(C)c3ccc(C#N)nc23)C[C@H]1CC (single isomer, unassigned) [US20250223301, Compound 55]
IC50 [1]: 76 nM
IC50 [2]: 12 nM
